Measurements taken from ChEMBL document CHEMBL4130354 (Eur J Med Chem, 2017).

Target: T1, Prostaglandin G/H synthase 2 (Ovis aries, UniProt P79208)
T1 sequence (P79208 whole entry): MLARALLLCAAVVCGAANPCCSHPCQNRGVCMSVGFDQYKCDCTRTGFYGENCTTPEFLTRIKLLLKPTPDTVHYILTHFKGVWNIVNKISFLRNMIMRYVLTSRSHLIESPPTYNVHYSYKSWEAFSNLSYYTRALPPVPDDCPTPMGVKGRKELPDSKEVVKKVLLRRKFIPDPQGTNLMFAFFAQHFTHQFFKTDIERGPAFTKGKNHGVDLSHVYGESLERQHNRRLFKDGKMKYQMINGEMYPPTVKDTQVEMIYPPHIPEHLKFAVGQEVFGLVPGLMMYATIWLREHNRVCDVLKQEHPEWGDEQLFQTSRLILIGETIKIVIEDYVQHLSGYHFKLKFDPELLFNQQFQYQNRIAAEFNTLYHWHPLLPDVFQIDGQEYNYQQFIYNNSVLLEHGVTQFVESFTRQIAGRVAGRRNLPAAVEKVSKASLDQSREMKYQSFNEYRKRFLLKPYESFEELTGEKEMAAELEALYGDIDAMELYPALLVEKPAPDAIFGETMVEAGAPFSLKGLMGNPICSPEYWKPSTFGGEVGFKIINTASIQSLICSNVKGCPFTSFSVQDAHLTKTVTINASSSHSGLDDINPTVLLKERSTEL
Test: Inhibition of recombinant ovine COX2 catalytic activity using arachidonic acid as substrate preincubated for 5 mins followed by substrate and hemin addition measured after 2 mins by colorimetric method

| SMILES | IC50 |
| --- | --- |
| Cc1onc(-c2ccc(Cl)o2)c1-c1ccccc1 | > 50 µM |
| COc1ccc(-c2noc(CC(=O)O)c2-c2ccc(OC)cc2)cc1 [MOFEZOLAC] | > 50 µM |
